ChEMBL document CHEMBL6182947, “Discovery of Phloroglucinol Derivatives as a New Type of Nonnucleoside Inhibitors with Anti-herpes Simplex Virus Type 1 Activity” (J Med Chem, 2025)
Active and inactive are the calls of the source. The rule behind the calls is not given here.

Tests used:
[1] = tested on: Human alphaherpesvirus 1; experiment: Antiviral activity against ACV-resistant HSV1 Blue infected in African green monkey Vero cells assessed as reduction of virus-induced cytopathic effect measured after 48 hrs of incubation; format: functional, organism-based; conditions: Human alphaherpesvirus 1, Blue
[2] = tested on: Human alphaherpesvirus 1; experiment: Antiviral activity against ACV-resistant HSV1 153 infected in African green monkey Vero cells assessed as reduction of virus-induced cytopathic effect measured after 48 hrs of incubation; format: functional, organism-based; conditions: Human alphaherpesvirus 1, 153, Vero
[3] = tested on: Human alphaherpesvirus 1; experiment: Antiviral activity against HSV1 infected in African green monkey Vero cells assessed as reduction of virus-induced cytopathic effect measured after 48 hrs of incubation; format: functional, organism-based; conditions: Human alphaherpesvirus 1, Vero
[4] = tested on: Human alphaherpesvirus 1; experiment: Antiviral activity against HSV1 expressing GFP infected in African green monkey Vero cells assessed as suppression of infection at 50 times of IC50 concentration measured after 48 hrs post-infection; format: functional, organism-based
[5] = Cytotoxicity against African green monkey Vero cells assessed as cell viability measured after 24 hrs incubation by MTT assay; format: toxicity, cell-based; conditions: chlorocebus sabaeus
[6] = Selectivity index, ratio of CC50 for Cytotoxicity against african green monkey Vero cells to IC50 for Antiviral activity against HSV1 infected in African green monkey Vero cells; format: toxicity, cell-based; conditions: read-out: Selectivity Index
[7] = tested on: Human alphaherpesvirus 1; experiment: Antiviral activity against HSV1 infected in African green monkey Vero cells assessed as inhibition of virus replication at 2 uM treated 8 hrs of post-infection; format: functional, organism-based
[8] = tested on: Human alphaherpesvirus 1; experiment: Antiviral activity against HSV1 infected in African green monkey Vero cells assessed as reduction of virus yield at 2 uM treated for 0 to 14 hrs of post-infection; format: functional, organism-based; conditions: time 0-14 hrs
[9] = tested on: Vero; experiment: Inhibition of CDK7/Cyclin T1 in African green monkey Vero cells infected with HSV1 assessed as catalytic hydrolysis of ATP measured after 12 hrs by Western blot analysis; format: cell-based; conditions: Chlorocebus aethiops
[10] = tested on: Human alphaherpesvirus 1; experiment: Antiviral activity against HSV1 expressing GFP infected in African green monkey Vero cells assessed as fold reduction in viral titer green fluorescence protein expression measured after 48 hrs post-infection by immunofluorescence based fluorescence microscopy; format: functional
[11] = tested on: Human alphaherpesvirus 1; experiment: Antiviral activity against HSV1 expressing GFP infected in African green monkey Vero cells assessed as reduction in green fluorescence protein expression at 1 uM measured after 24 hrs post-infection by immunofluorescence based fluorescence microscopy; format: functional, organism-based
[12] = tested on: Human alphaherpesvirus 1; experiment: Antiviral activity against HSV1 infected in African green monkey Vero cells assessed as inhibition of transcription by measuring viral gene level at 0.25 to 2 uM by RT-PCR analysis relative to control; format: functional, organism-based; conditions: dose 0.25-2 µM
[13] = tested on: Human alphaherpesvirus 1; experiment: In vivo antiviral activity against HSV1 infected in BALB/c mouse right ear by scratch assessed as reduction in skin lesions at 10 to 20 mg/kg, applied topically measured for 5 to 9 days post-infection; format: functional, organism-based; conditions: dose 10-20 mg/kg, time 5-9 day
[14] = tested on: Human alphaherpesvirus 1; experiment: In vivo antiviral activity against HSV1 infected in BALB/c mouse right ear by scratch assessed as reduction in viral titer in ear tissue homogenate at 10 to 20 mg/kg, applied topically measured for 5 to 9 days post-infection; format: functional, organism-based; conditions: dose 10-20 mg/kg, time 5-9 day
[15] = tested on: Human alphaherpesvirus 1; experiment: In vivo antiviral activity against HSV1 infected in BALB/c mouse right ear by scratch assessed as increase in body weight at 10 to 20 mg/kg, applied topically measured for 5 to 9 days post-infection relative to control; format: functional, organism-based; conditions: dose 10-20 mg/kg, time 5-9 day
[16] = tested on: Vero; experiment: Suppression of phosphorylation of RNA polymerase at serine 5 C-terminal domain in HSV1 infected African green monkey Vero cells measured after 12 hrs incubation by Western blot analysis; format: cell-based; conditions: Human alphaherpesvirus 1, dose 0.25-2 µM
[17] = tested on: Human alphaherpesvirus 1; experiment: In vivo antiviral activity against HSV1 infected in BALB/c mouse right ear by scratch assessed as reduction in gD glycoprotein level at 10 to 20 mg/kg, applied topically measured for 5 to 9 days post-infection; format: functional, organism-based; conditions: dose 10-20 mg/kg, time 5-9 day
[18] = Toxicity in BALB/c mouse assessed as toxic side effects at 10 to 20 mg/kg, applied topically measured for 5 to 9 days post-infection; format: organism-based; conditions: in vivo, topical_or_ocular, dose lower 10 mg/kg, time lower 5 day, dose upper 20 mg/kg, time upper 9 day
[19] = tested on: Human alphaherpesvirus 2; experiment: Antiviral activity against HSV2 infected in African green monkey Vero cells assessed as reduction of virus-induced cytopathic effect measured after 48 hrs of incubation; format: functional, organism-based; conditions: Human alphaherpesvirus 2, Vero
[20] = tested on: Human alphaherpesvirus 1; experiment: In vivo antiviral activity against HSV1 infected in BALB/c mouse right ear by scratch assessed as reduction in ear thickness at 10 to 20 mg/kg, applied topically measured for 5 to 9 days post-infection; format: functional, organism-based; conditions: dose 10-20 mg/kg, time 5-9 day
[21] = tested on: Vero; experiment: Suppression of phosphorylation of RNA polymerase at serine 2 C-terminal domain in HSV1 infected African green monkey Vero cells at 0.25 to 2 uM measured after 12 hrs incubation by Western blot analysis; format: cell-based; conditions: Human alphaherpesvirus 1, dose 0.25-2 µM
[22] = tested on: Human alphaherpesvirus 1; experiment: Antiviral activity against HSV1 expressing GFP infected in African green monkey Vero cells assessed as fold reduction in viral titer green fluorescence protein expression at 2 uM measured after 48 hrs post-infection by immunofluorescence based fluorescence microscopy; format: functional
[23] = tested on: Vero; experiment: Inhibition of CDK9/Cyclin T1 in African green monkey Vero cells infected with HSV1 assessed as catalytic hydrolysis of ATP measured after 12 hrs by Western blot analysis; format: cell-based; conditions: Chlorocebus aethiops

| Compound | IC50 [1] [nM] | IC50 [2] [nM] | IC50 [3] [nM] | CC50 at 24 h [5] [nM] | selectivity ratio [6] | Activity [8] | other results |
| --- | --- | --- | --- | --- | --- | --- | --- |
| Nc1nc2c(ncn2COCCO)c(=O)[nH]1 [ACYCLOVIR] | > 100000 | > 100000 | 1200 | > 100000 | > 80 |  | Activity [4]: inactive; Activity [7]: Active |
| CC(C)CC(=O)c1c(O)cc2c(c1O)[C@@H](CC(C)C)C1=C(O2)C(C)(C)[C@@H](O)C(C)(C)C1=O |  |  | 3750 | 10000 | < 6.67 | Active |  |
| CC(C)CC(=O)c1c(O)cc2c(c1O)C(CC(C)C)C1=C(O2)C(C)(C)C(=O)C(C)(C)C1=O (racemic) | 300 | 300 | 390 | 7000 | 17.9 | Active | Activity [9]: inactive; fold change (FC) [10]: 3943; Activity [11]: Active; Activity [12]: Active; Activity [13]: Active; Activity [14]: Active; Activity [15]: Active; Activity [16]: Dose-dependent-effect; Activity [17]: Active; Activity [18]: Non-toxic; IC50 [19]: 350 nM; Activity [20]: Active; Activity [21]: Active; Compound Showed Only Slight Inhibition; Activity [22]: Active |
| CC(C)CC(=O)c1c(O)c(Cl)c2c(c1O)C(CC(C)C)C1=C(O2)C(C)(C)C(=O)C(C)(C)C1=O (centres undefined) | 300 | 400 | 400 | 14000 | 35 |  | Activity [10]: Dose-dependent-effect; fold change (FC) [22]: 3549 |
| CC(C)CC1C2=C(Oc3cc(O)c(C(=O)C4CCC4)c(O)c31)C(C)(C)C(=O)C(C)(C)C2=O (centres undefined) | 250 | 300 | 500 | 13000 | 26 | Active | Activity [10]: Dose-dependent-effect; fold change (FC) [22]: 1867 |
| CC(C)(C)c1cnc(CSc2cnc(NC(=O)C3CCNCC3)s2)o1 |  |  |  |  |  |  | Activity [9]: Active; Activity [23]: Active; Activity [21]: Active |
| CC(C)CC(=O)c1c(O)cc2c(c1O)C(C(C)C)C1=C(O2)C(C)(C)C(=O)C(C)(C)C1=O (centres undefined) | 600 | 700 | 630 | 10000 | 15.9 |  |  |
